The values that follow come from patent publication EP1501797B1, “3-(SUBSTITUTED AMINO)-1H-INDOLE-2-CARBOXYLIC ACID ESTER AND 3-(SUBSTITUTED AMINO)-BENZO[B]THIOPHENE-2-CARBOXYLIC ACID ESTER DERIVATIVES AS INTERLEUKIN-4 GENE EXPRESSION INHIBITORS” (Aventis Pharmaceuticals Inc., priority 2002, dated 2003).

One assay relates to IFN-γ. The experiment in a line: Human primary Th1 (NYTh1) cells, IFN-γ ELISA. In kind it is cell-based. The conditions noted are these: data from 8 different experiments combined. The protocol:
(§1) Briefly, CD4^+CD45RA^+ T cells, isolated from donor peripheral blood mononuclear cells of healthy donors, are educated in the presence of anti-CD3/CD28 antibodies and various growth factors to obtain either a Thl-like or Th2-like phenotypes as determined by the known cytokine profiles of these two cell types.
Generation of Th1/Th2 cells: Twenty four well plates are coated with 300 µL anti-CD3 Ab (10 µg/ml, in PBS 1-2 h at 37°C or overnight at 4°C), and washed two times with PBS. CD4^+/CD45RA^+ cells at a density of 10^6/ml in RPMI, is prepared and added to RPMI medium containing 10% Hyclone serum/ glutamine and 1-2 µg/ml anti-CD28 Ab. The cells are split in two aliquots. […] The degree of polarization is determined by intracellular staining of cells with anti-IFN-γ and anti-IL-4 antibodies from Pharmingen, and using flow cytometry from Becton Dickinson (BD), according to manufacturers description. […] For compound testing, large quantities of Th1 and Th2 cells derived from a given donor (NYTh1 and NYTh2) were expanded and frozen as aliquots in liquid nitrogen. […]
Re-stimulation by allogeneic cells: Human PBMCs, to be used as alloantigens, are isolated from freshly drawn blood by Ficoll separation. […] Cells are counted and diluted to a final concentration of 2 x 10^6/ml in medium containing 10 µg/ml PHA and 200 units/ml IL-2. […]
(In general: In an ELISA, binding on a coated surface is turned into a signal by an enzyme label.)

Another assay concerns Anti-OVA IgE. The experiment in a line: OVA induced allergen specific IgE in mice. The conditions noted are these: bled at day 15, vehicle 150.8. The format is in vivo. The protocol: Female mice (5-8 week age, Balb/c, Charles River) were used in this study. Ovalbumin (Sigma) was adsorbed to Aluminum Hydroxide Adsorptive Gel, Inter, and injected 10 µg/0.2ml/mouse intraperitoneally on experimental day 0 and day 7. […] They were bled at day 15. Serum ovalbumin specific IgE levels were determined by standard ELISA using a goat anti-mouse IgE antibody labeled with alkaline phosphatase. The anti-OVA titers were determined by making serial dilutions of the test sera and comparing with vehicle control.

The next assay has as its system IL-4. In words: Human primary Th2 cells, anti-CD3/anti-CD28 activated, IL-4 ELISA. The format is cell-based. The protocol: as §1
Peripheral blood mononuclear cells (PBMC) are prepared from human blood by Ficoll-Hypacque (Pharmacia). The cells are washed two times in Hanks balanced salt solution (HBSS) and counted.
Naive T cells (CD4^+/CD45RA ) are prepared by negative selection method using following antibodies and Dynabeads: anti-CD8, anti-HLA-DR, (where HLA means human leucocyte antigen) anti-CD14, anti-CD16, anti-CD19, anti-CD45RO antibodies (all from R&D Systems, 1-2 µg/ml) are added to the cells, and the cells are kept on ice for 30 min. The cells are washed two times in HBSS, and goat anti- mouse Ig-beads, (bead:target ratio, 5:1) are added. The cells and beads are slowly rotated at 4°C for 20 min. (following the protocol supplied from Dynal). The supernatant is removed and fresh goat anti-mouse Ig-beads are added to the supernatant, which is slowly rotated at 4°C for 20 min. The cells are counted and phenotypically characterized by flow cytometric analysis.
CD4^+/CD45RA^+ cells at a density of 10^6/ml in RPMI, is prepared and added to RPMI medium containing 10% Hyclone serum/ glutamine and 1-2 µg/ml anti-CD28 Ab. The cells are split in two aliquots. For Th1 cells: anti-IL-4 Ab (1-2 µg/ml), IFN-γ (1 µg/ml, or 5000 units/ml) are added to the wells. For Th2 cells: IL-4 (100-200 ng/ml), anti-IFN-γ neutralizing Ab (1-2 µg/ml), anti-IL-12 neutralizing Ab (1-2 µg/ml) are added into the wells. […] The cells are transferred to fresh wells and grown in 200 units/ml IL-2 for 2 weeks by feeding them every other day with IL-2 containing medium and splitting the cultures 1:2 or 1:3 as needed. The degree of polarization is determined by intracellular staining of cells with anti-IFN-γ and anti-IL-4 antibodies from Pharmingen, and using flow cytometry from Becton Dickinson (BD), according to manufacturers description. The cells are stimulated with PHA and alloantigens at day 14 and 28 as described below. Eight days after the second allostimulation the cells can be used for compound screening or frozen for future use. For compound testing, large quantities of Th1 and Th2 cells derived from a given donor (NYTh1 and NYTh2) were expanded and frozen as aliquots in liquid nitrogen. The cells are thawed and cultured as and when needed. The thawed cells are stimulated with alloantigen/PHA combination. The cells are used for compound screening after 8-10 days in culture.
Re-stimulation by allogeneic cells: Human PBMCs, to be used as alloantigens, are isolated from freshly drawn blood by Ficoll separation. […] Cells are counted and diluted to a final concentration of 2 x 10^6/ml in medium containing 10 µg/ml PHA and 200 units/ml IL-2.
Ninetysix well Falcon tissue culture plates (Fisher Scientific) are coated with 100 microliters per well of 10 µg/ml anti-CD3 (PharMingen) antibody in phosphate buffered saline (PBS) and stored at 4°C one day before the experiment.
On the day of assay, anti-CD3 antibody coated plates are washed with PBS once to remove all soluble anti-CD3 antibody. […] All compounds and controls are assayed in triplicates.

pIC50: −log10 of the molar value. Some results are limits rather than exact numbers.

For `O=C(O)c1[nH]c2ccccc2c1Nc1ccncc1` [Example 28, 3-(4-Pyridinylamino)-1H-indole-2-carboxylic acid], the pIC50 with IFN-γ was < 5.00; in the assay on IL-4 (Human primary Th2 cells, combined data from 10 different experiments), 6.62. Further, the entries for the “Anti-OVA IgE” value in the assay on Anti-OVA IgE (3 mg/kg intraperitoneally once a day from day 6 to day 14) and in the assay on Anti-OVA IgE (10 mg/kg intraperitoneally once a day from day 6 to day 14) were 41.8 and 45.6, respectively. Besides, the “IL-4 PROTEIN Exp #2” value in the assay with IL-4 (10 µM, 18 hrs, ELISA of culture supernatants, stimulated control 625.0+/- 23) was determined as 286.2 ± 19 pg/mL. For the same compound, in the assay on IL-4 (Homo sapiens, 0.01 µM, 48 hr, read-out: IL-4 (% control) mean), the activity at 0.01 µM was 102%. Also, in the assay on IL-4 (Homo sapiens, 0.03 µM, 48 hr, read-out: IL-4 (% control) mean), the activity at 0.03 µM was 65.3%. Also, the activity at 0.1 µM with IL-4 (Homo sapiens, 0.1 µM, 48 hr, read-out: IL-4 (% control) mean) was found to be 59.8%. In addition, the activity at 0.3 µM in the assay with IL-4 (Homo sapiens, 0.3 µM, 48 hr, read-out: IL-4 (% control) mean) was 45%. Moreover, the activity at 1 µM in the assay with IL-4 (Homo sapiens, 1 µM, 48 hr, read-out: IL-4 (% control) mean) is 42.5%. The activity at 3 µM with IL-4 (Homo sapiens, 3 µM, 48 hr, read-out: IL-4 (% control) mean) turned out to be 36.4%. Besides, the activity at 10 µM in the assay with IL-4 (Homo sapiens, 10 µM, 48 hr, read-out: IL-4 (% control) mean) came out at 30.8%. Also, the “IFN-γ/ IL-4 Ratio” value in the assay on IL-4 (Human primary Th2 cells, ratio of IC50) is listed as > 41.

In general, pIC50 refers to the negative decadic logarithm of the IC50, by convention in mol/L.
